The nature of series [1]: Plasma levels and bioavailability in mice. Format: in vivo, male C57BL/6 mice. The conditions noted are these: male, C57BL/6, mouse, read-out: Bioavailability % F. The protocol:
The plasma levels of a compound following a single intravenous, oral, intra-peritoneal, or sub-cutaneous administration in male C57BL/6 mice was determined. Plasma samples were collected and used to determine the plasma concentration of the compound and metabolites. In addition tissue samples, including whisker samples, and peripheral blood mononuclear cells (PBMC) cells were collected for telomerase activity analysis.
[…] mice were divided into treatment groups. The mice were provided ad libitum SLAC-MO1 #W080208 (Shanghai Laboratories Animal Center, Shanghai, China) throughout the in-life portion of the study with the exception of the overnight fasting period prior to oral dosing. Water was available ad libitum.
(§1) Body weights were taken on the day of dose administration. Dose volume was determined based on individual body weight taken on day of dosing.
Blood samples (approximately 300 μL) were collected via cardiac puncture or via retro-orbital puncture after anesthesia into tubes containing K2-EDTA anticoagulant and 1 mg/ml NaF at the various time points after dosing. Blood was stored on ice and then plasma separated via centrifugation (8000 rpm×6 minutes). The plasma was stored at […] until LC-MS/MS analysis.

Series [2] can be described thus: Plasma levels and bioavailability in rats. As to conditions: male, Sprague Dawley, rat, in vivo, po, 10 mg/kg. The protocol: The plasma levels of a compound following a single intravenous and oral administration in carotid artery-cannulated male Sprague Dawley rats was determined. Plasma samples were collected and used to determine the plasma concentration of the compound and metabolites. In addition tissue samples, including whisker samples and PBMC cells were collected for telomerase activity analysis.
Carotid artery-cannulated male Sprague Dawley rats were divided into treatment groups according to Table 6. The rats were provided ad libitum SLAC-MO1 # YY080208 (Shanghai Laboratories Animal Center, Shanghai, China) throughout the in-life portion of the study with the exception of the overnight fasting period prior to oral dosing. Water was available ad libitum.
The compounds were dissolved in 2% EtOH/98% water to yield a final concentration of 2.5 mg/ml and 1 mg/ml for both intravenous and oral administration, respectively. The concentration of each compound was confirmed by HPLC analysis.
as §1
Blood samples (approximately 250 μL) were collected via cannulae into tubes containing K2-EDTA anticoagulant and 1 mg/ml NaF at the various time points. Blood was stored on ice and then plasma separated via centrifugation (8000 rpm×6 minutes). The plasma was stored at […] until LC-MS/MS analysis.
Percentage of bioavailability was calculated.

In series [3] the test system is Human brain pericytes. Nature of the series: Tube formation of human brain pericytes on Matrigel. In kind it is cell-based. The conditions noted are these: 0.5 μM in water, 24 hr then 6 hr on Matrigel, p<0.15. The protocol:
Human brain pericytes (donor) at PD 10 were cultured for a total of 30 hr in 0.5 μM compound 7 dissolved in water. Telomerase activity and tube formation were analyzed.
Brain pericytes were first cultured for 24 hr in a T-75 flask in 0.5 μM compound 7, and then split onto a 24 well plate coated with Matrigel in order to promote tube formation (done in triplicate). 0.5 μM compound 7 was again included in the medium. After 6 hr the samples were fixed and branch points were counted using a microscope, 5 fields/well, with 3 wells/condition. Compound 7 treated pericytes had 1.9 times more branch points than the control (p<0.15).

Series [4] addresses T1, telomerase (Homo sapiens, UniProt O14746). Nature of the series: Keratinocyte cell/TRAP assay (HEKneo-P cells). In kind it is cell-based. More on the design: host or cells: HEKneo-P (pooled neonatal human epidermal keratinocytes). The conditions noted are these: for EC50: telomerase activation; for Activity in in vitro HEK assay: 24 hr, 0.01 to 10 μM, vs vehicle control at peak of full dose curve. The source says:
Harley et al., U.S. Pat. […] Harley et al., U.S. Pat. […] Non-treatment control (NT) was also included. […]

Details of series [5]: species or system male Beagle dogs. The conditions noted are these: male, Beagle, dog, in vivo, po, 10 mg/kg. The protocol: The plasma level of a compound following a single intravenous and oral administration in male Beagle dogs was determined. Plasma samples were collected and used to determine the plasma concentration of the compound and metabolites. In addition tissue samples, including whisker samples and PBMC cells were collected for telomerase activity analysis.
Male Beagle dogs were divided into treatment groups according to Table 5. The dogs were provided ad libitum SLAC-MO1 #W080701 (Shanghai Laboratories Animal Center, Shanghai, China) throughout the in-life portion of the study with the exception of the overnight fasting period prior to oral dosing. Water was available ad libitum.
The compounds were dissolved in 2% EtOH/98% water […] to yield a final concentration of 2.5 mg/ml and 1 mg/ml for both intravenous and oral administration, respectively. The concentration of each compound was confirmed by HPLC analysis.
Doses were administered intravenously via the left femoral vein and then by oral dosing one week later. Body weights were taken on the day of dose administration. Dose volume was determined based on individual body weight taken on day of dosing.
Blood samples (approximately 250 μL) were collected via right femoral vein into tubes containing K2-EDTA anticoagulant and 1 mg/ml NaF at appropriate time points. Blood was stored on ice and then plasma separated via centrifugation (8000 rpm×6 minutes). The plasma was stored at […] until LC-MS/MS analysis.

Series [6] has as its target T1, telomerase. More on the design: host or cells: peripheral blood mononuclear cells. The conditions noted are these: reported by Franzese et al.; cited from earlier work.
For series [7], the target named is T1, telomerase. Description: In vitro model of fibrosis: TGFβ and bleomycin treated SAECs, gel TRAP assay. Format: cell-based. As to conditions: bleomycin 10 ug/ml, TGFβ 10 ng/ml.
Experimental: In addition a portion of the cells were treated with bleomycin (10 ug/ml) and TGFβ (10 ng/ml). Forty-eight hours after the second treatment, cells were washed and lysed with M-Per lysis buffer. A gel TRAP assay was run to evaluate the telomerase activity in the cells.

Where two headings read alike, the source gives them in different places.

T1 sequence (O14746 whole entry): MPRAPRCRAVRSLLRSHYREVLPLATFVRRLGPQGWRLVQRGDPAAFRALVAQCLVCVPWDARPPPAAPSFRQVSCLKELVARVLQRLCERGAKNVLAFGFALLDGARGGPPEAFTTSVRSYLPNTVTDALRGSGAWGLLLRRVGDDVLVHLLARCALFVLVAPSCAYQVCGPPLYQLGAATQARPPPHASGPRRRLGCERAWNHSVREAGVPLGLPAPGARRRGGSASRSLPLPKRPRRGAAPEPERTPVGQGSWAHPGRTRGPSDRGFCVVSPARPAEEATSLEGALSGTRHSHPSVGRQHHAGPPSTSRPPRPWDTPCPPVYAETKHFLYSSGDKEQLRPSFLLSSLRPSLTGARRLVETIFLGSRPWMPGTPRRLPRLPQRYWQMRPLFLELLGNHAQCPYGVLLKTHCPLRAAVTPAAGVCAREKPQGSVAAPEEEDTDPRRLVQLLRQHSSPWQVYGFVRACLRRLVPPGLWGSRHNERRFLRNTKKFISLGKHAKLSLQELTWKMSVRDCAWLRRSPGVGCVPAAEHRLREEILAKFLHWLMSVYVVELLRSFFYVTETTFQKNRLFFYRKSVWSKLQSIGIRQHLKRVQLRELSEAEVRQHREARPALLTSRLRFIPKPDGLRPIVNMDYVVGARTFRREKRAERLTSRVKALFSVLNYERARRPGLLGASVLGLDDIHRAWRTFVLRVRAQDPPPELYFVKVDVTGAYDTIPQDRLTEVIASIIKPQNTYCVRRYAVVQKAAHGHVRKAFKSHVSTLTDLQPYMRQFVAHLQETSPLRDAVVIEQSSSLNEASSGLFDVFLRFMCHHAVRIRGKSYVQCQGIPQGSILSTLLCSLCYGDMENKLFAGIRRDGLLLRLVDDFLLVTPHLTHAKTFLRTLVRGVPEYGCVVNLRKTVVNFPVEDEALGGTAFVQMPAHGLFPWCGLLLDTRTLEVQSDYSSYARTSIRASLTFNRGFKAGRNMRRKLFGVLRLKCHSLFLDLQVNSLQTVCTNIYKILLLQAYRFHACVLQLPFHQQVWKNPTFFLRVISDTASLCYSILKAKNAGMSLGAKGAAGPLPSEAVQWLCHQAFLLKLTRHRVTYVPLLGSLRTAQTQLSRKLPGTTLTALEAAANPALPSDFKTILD

With `CC(C)C(N)C(=O)OC1CC2C3(C)CC(O)C(C4(C)CCC(C(C)(C)O)O4)C3(C)CCC23CC32CCC(OC(=O)C(N)C(C)C)C(C)(C)C12` (stereo not drawn) [Compound 7, 2-(L)-Amino-3-methyl-butyric acid 6α-(2-amino-3-methyl-butyryloxy)-16β-dihydroxy-17-[5-(1-hydroxy-1-methyl-ethyl)-2-methyl-tetrahydro-furan-2-yl]-4,4,13,14-tetramethyl-tetradecahydro-cyclopropa[9,10]cyclopenta[a]phenanthren-3β-yl ester], the bioavailability – broadly, dose-corrected exposure relative to a reference, in per cent – in series [1] (PO, 10 mg/kg, 2% EtOH/98% water) is 25%; in series [1] (SC, 10 mg/kg, 2% EtOH/98% water), 61%. Besides, the “Bioavailability % F” value in series [2] worked out at 44%. Further, in series [3], the “branch points relative to the control” value was 1.9 times. In addition, the EC50 – broadly, the concentration needed to bring the measured effect to its halfway point – in series [4] was 41 to 50 nM.
In the case of `CC(C)C(N)C(=O)OC1CC2C3(C)CC(O)C(C4(C)CCC(C(C)(C)O)O4)C3(C)CCC23CC32CCC(O)C(C)(C)C12` (centres unmarked) [Compound 12], the bioavailability in series [1] (IP, 5 mg/kg, 2% EtOH/98% water) amounted to 42%; in series [1] (PO, 5 mg/kg, 2% EtOH/98% water), 8%. Also, the “Bioavailability % F” value in series [2] turned out to be 27%. In series [4], this molecule had an EC50 of 28 to 32 nM.
For the molecule `CCC(C)C(N)C(=O)OC1CCC23CC24CCC2(C)C(C5(C)CCC(C(C)(C)O)O5)C(O)CC2(C)C4CC(O)C3C1(C)C` (centres unmarked) [Compound 14], the bioavailability in series [1] (PO, 10 mg/kg, 5% PEG400/5% solutol HS-15/90% water) was determined as 42%. Further, the “Bioavailability % F” value in series [2] is 93%; in series [5], 55%. The EC50 in series [4] was 9 to 21 nM.
Consider `CC(C)[C@H](N)C(=O)O[C@H]1CC2C3(CC[C@]4(C)[C@@H]([C@@]5(C)CC[C@@H](C(C)(C)O)O5)[C@@H](O)C[C@@]24C)C[C@@]32CCC(=O)C(C)(C)[C@H]12.Cl` (stereo partly drawn) [Compound 30, 2-(L)-Amino-3-methyl butyric acid 16β-hydroxy-17-[5-(1-hydroxy-1-methyl-ethyl)-2-methyl-tetrahydro-furan-2-yl]-4,4,13,14-tetramethyl-3-oxo-tetradecahydro-cyclopropa[9,10]cyclopenta[a]phenanthren-6α-yl ester], for which, in series [4], the “Max fold increase of activity” value is given as 3.5 fold and the “Activity in in vitro HEK assay” value was “+ (telomerase activation is 2 fold or more in comparison with vehicle control at the peak of the full dose curve.)”.
As for `CCC(C)[C@H](N)C(=O)OC1CC2C3(C)CC(O)C(C4(C)CCC(C(C)(C)O)O4)C3(C)CCC23CC32CCC(OC(=O)[C@@H](N)C(C)CC)C(C)(C)C12` (some centres unmarked) [Compound 32], in series [4], the “Max fold increase of activity” value was 3 fold, the “concentration at Max fold increase of activity” value was in the range of 0.37 to 1.1 µM and the “Activity in in vitro HEK assay” value is listed as “+ (telomerase activation is 2 fold or more in comparison with vehicle control at the peak of the full dose curve.)”.
Turning to `CC(C)[C@H](N)C(=O)OC1CC2(C)C3CC(O)C4C(C)(C)C(O)CCC45CC35CCC2(C)C1C1(C)CCC(C(C)(C)O)O1` (stereo partly drawn) [Compound 36, 2-(L)-Amino-3-methyl-butyric acid 3β,6α-dihydroxy-16β-hydroxy-17-[5-(1-hydroxy-1-methyl-ethyl)-2-methyl-tetrahydro-furan-2-yl]-4,4,13,14-tetramethyl-tetradecahydro-cyclopropa[9,10]cyclopenta[a]phenanthren-16β-yl ester], in series [4], the “Max fold increase of activity” value is 3.0 fold, the “concentration at Max fold increase of activity” value was in the range of 0.01 to 0.12 µM and the “Activity in in vitro HEK assay” value is recorded as “+ (telomerase activation is 2 fold or more in comparison with vehicle control at the peak of the full dose curve.)”.
On to `CC(C)(C)NC(=O)[C@@H]1C[C@@H]2CCCC[C@@H]2CN1C[C@@H](O)[C@H](Cc1ccccc1)NC(=O)[C@H](CC(N)=O)NC(=O)c1ccc2ccccc2n1` [Saquinavir], for which the “telomerase activity in peripheral blood mononuclear cells” value in series [6] is recorded as “increased telomerase activity”.
As for bleomycin, the “effect on SAEC telomerase activity” value in series [7] is recorded as “suppressed SAEC telomerase activity”.

(Values after patent publication US9403866B2, “Compositions and methods for increasing telomerase activity” (Telomerase Activation Sciences, Inc., priority 2009, dated 2016).)
